{"source": "paper PMC10893103", "about": "“Cyclodextrin-Enabled Enantioselective Complexation Study of Cathinone Analogs” (Molecules, 2024)", "data": [{"assay": "Affinity capillary electrophoresis (ACE), pH 7.4", "conditions": "30 mM phosphate buffer pH 7.4, 25 °C, 15 kV", "source_text": "To assess the CD complex formation capability of the five cathinone derivatives, we devised a screening ACE method tailored to closely mimic physiological conditions. In a preliminary study, the ACE conditions were optimized regarding the type, pH, and concentration of the background electrolyte, the applied voltage, and the injection parameters. […] In order to avoid high Joule heat generation, sufficiently low voltage should be used; thus, after registering the Ohm plot (I-U plot), it was set to 15 kV. Throughout our ACE measurements, corrections for viscosity and ionic strength were systematically implemented to ensure precise determination of complex stability constants.\nThe CE experiments were performed on a HP ^3DCE and on an Agilent 7100 instrument (Agilent Technologies, Waldbronn, Germany) equipped with a photodiode array detector and the Chemstation software for data handling. Untreated fused silica capillaries (50 µm id, 48.5 cm total, 40 cm effective length) were purchased from Agilent. Conditioning of new capillary was conducted by flushing with 1 M NaOH followed by 0.1 M NaOH and water for 30 min each. Prior to all runs, the capillary was preconditioned by rinsing with BGE (2 min). The temperature of the capillary was set to 25 °C. UV detection was performed at 215 nm, and 15–25 kV voltage was applied. Samples were injected hydrodynamically (150 mbar·sec, optimized in the 50–500 mbar·sec range). The CE-pH measurements were carried out applying 25 kV voltage and 200 mbar·sec injection.\nThe background electrolyte of the CE-pH measurements contained 25 mM Na2HPO4 and 25 mM Na2B4O7, and the appropriate pH was adjusted with hydrochloric acid. During the ACE measurements, 30 mM phosphate buffer pH 7.4 (30 mM Na2HPO4—NaOH) was used. The running buffer was 20 mM acetic acid adjusting with 1 M Tris the pH to 4.5 during the chiral screening experiments. The BGEs contained CDs at various concentrations (0.25–20 mM) in the ACE experiments and 1-5-10 mM in the chiral method optimization experiments.\nStock solutions of each cathinone analog (mephedrone, flephedrone, 4-MEC, butylone, and MDPV) were prepared separately in methanol (1 mg/ml), and appropriate dilutions with water were used to prepare sample solutions for the CE-pH titration and for the ACE studies applying DMSO as EOF marker, while their mixture was used during the chiral separation studies.\nThe simplest way to determine the mobility is from the migration times (tmax) read from the electropherograms from which the apparent mobility could be calculated, but more accurate mobility values could be obtained by the determination with the Haarhoff–van der Linde (HVL) function based on Equation (2). (2) HVLδ(t;a0,a1,a2,a3δ)=a0/a2a3δ2πexp[−1/2(t−a1/a2)^2]/1/exp(a3δ)−1+1/2[1+erf(t−a1/2a2)] where a0 is the area of the HVL function, a1 is the position of the Gaussian component, a2 is the standard deviation of the Gaussian component, and a3δ is the peak shape distortion. The application of the HVL function is necessary in the case of accurate ACE measurements because, in several cases, the peaks are distorted due to the complex formation, which makes reading the migration times and calculating the mobility more difficult and imprecise.\nThe most popular technique for quantifying the analyte–ligand interaction with CE is mobility shift ACE.", "units": {"4-MEC–CD complex stability constant, Kstab/Kstab1 (unresolved or first migrating enantiomer)": "M⁻¹", "Butylone–CD complex stability constant, Kstab/Kstab1 (unresolved or first migrating enantiomer)": "M⁻¹", "MDPV–CD complex stability constant, Kstab/Kstab1 (unresolved or first migrating enantiomer)": "M⁻¹", "Flephedrone–CD complex stability constant, Kstab/Kstab1 (unresolved or first migrating enantiomer)": "M⁻¹", "MDPV–CD complex stability constant, Kstab2 (second migrating enantiomer)": "M⁻¹", "Mephedrone–CD complex stability constant, Kstab/Kstab1 (unresolved or first migrating enantiomer)": "M⁻¹", "Butylone–CD complex stability constant, Kstab2 (second migrating enantiomer)": "M⁻¹", "4-MEC–CD complex stability constant, Kstab2 (second migrating enantiomer)": "M⁻¹", "Flephedrone–CD complex stability constant, Kstab2 (second migrating enantiomer)": "M⁻¹", "Mephedrone–CD complex stability constant, Kstab2 (second migrating enantiomer)": "M⁻¹"}, "values": [{"molecule": "CO[C@H]1[C@H]2O[C@H]3[C@H](OS(=O)(=O)O)[C@@H](OC)[C@@H](O[C@H]4[C@H](OS(=O)(=O)O)[C@@H](OC)[C@@H](O[C@H]5[C@H](OS(=O)(=O)O)[C@@H](OC)[C@@H](O[C@H]6[C@H](OS(=O)(=O)O)[C@@H](OC)[C@@H](O[C@H]7[C@H](OS(=O)(=O)O)[C@@H](OC)[C@@H](O[C@H]8[C@H](OS(=O)(=O)O)[C@@H](OC)[C@@H](O[C@@H]([C@@H]1OS(=O)(=O)O)[C@@H](COS(=O)(=O)O)O2)O[C@@H]8COS(=O)(=O)O)O[C@@H]7COS(=O)(=O)O)O[C@@H]6COS(=O)(=O)O)O[C@@H]5COS(=O)(=O)O)O[C@@H]4COS(=O)(=O)O)O[C@@H]3COS(=O)(=O)O", "note": "[HMDiSu-β-CD, heptakis-(2-O-methyl, 3,6-O-disulfo)-β-CD]", "4-MEC–CD complex stability constant, Kstab/Kstab1 (unresolved or first migrating enantiomer)": "260 ± 10", "Butylone–CD complex stability constant, Kstab/Kstab1 (unresolved or first migrating enantiomer)": "265 ± 20", "MDPV–CD complex stability constant, Kstab/Kstab1 (unresolved or first migrating enantiomer)": "165 ± 25"}, {"molecule": "OCCCNC[C@H]1O[C@@H]2O[C@H]3[C@H](O)[C@@H](O)[C@@H](O[C@H]4[C@H](O)[C@@H](O)[C@@H](O[C@H]5[C@H](O)[C@@H](O)[C@@H](O[C@H]6[C@H](O)[C@@H](O)[C@@H](O[C@H]7[C@H](O)[C@@H](O)[C@@H](O[C@H]8[C@H](O)[C@@H](O)[C@@H](O[C@H]1[C@H](O)[C@H]2O)O[C@@H]8CO)O[C@@H]7CO)O[C@@H]6CO)O[C@@H]5CO)O[C@@H]4CO)O[C@@H]3CO", "note": "[HPA-β-CD, mono-6^A-(3-hydroxy)propylamino-β-CD]", "4-MEC–CD complex stability constant, Kstab/Kstab1 (unresolved or first migrating enantiomer)": "145 ± 15", "Butylone–CD complex stability constant, Kstab/Kstab1 (unresolved or first migrating enantiomer)": "85 ± 15", "Flephedrone–CD complex stability constant, Kstab/Kstab1 (unresolved or first migrating enantiomer)": "500 ± 105", "MDPV–CD complex stability constant, Kstab2 (second migrating enantiomer)": "570 ± 80", "MDPV–CD complex stability constant, Kstab/Kstab1 (unresolved or first migrating enantiomer)": "840 ± 65", "Mephedrone–CD complex stability constant, Kstab/Kstab1 (unresolved or first migrating enantiomer)": "140 ± 35"}, {"molecule": "CO[C@@H]1[C@@H](OC)[C@H]2O[C@H]3[C@H](OC)[C@@H](OC)[C@@H](O[C@H]4[C@H](OC)[C@@H](OC)[C@@H](O[C@H]5[C@H](OC)[C@@H](OC)[C@@H](O[C@H]6[C@H](OC)[C@@H](OC)[C@@H](O[C@H]7[C@H](OC)[C@@H](OC)[C@@H](O[C@@H]1[C@@H](COS(=O)(=O)O)O2)O[C@@H]7COS(=O)(=O)O)O[C@@H]6COS(=O)(=O)O)O[C@@H]5COS(=O)(=O)O)O[C@@H]4COS(=O)(=O)O)O[C@@H]3COS(=O)(=O)O", "note": "[HxDMS-α-CD, hexakis-(2,3-O-dimethyl, 6-O-sulfo)-α-CD]", "4-MEC–CD complex stability constant, Kstab/Kstab1 (unresolved or first migrating enantiomer)": "55 ± 15", "Butylone–CD complex stability constant, Kstab/Kstab1 (unresolved or first migrating enantiomer)": "550 ± 95", "Flephedrone–CD complex stability constant, Kstab/Kstab1 (unresolved or first migrating enantiomer)": "105 ± 12", "MDPV–CD complex stability constant, Kstab/Kstab1 (unresolved or first migrating enantiomer)": "220 ± 30", "Mephedrone–CD complex stability constant, Kstab/Kstab1 (unresolved or first migrating enantiomer)": "270 ± 110"}, {"molecule": "NC[C@H]1O[C@@H]2O[C@H]3[C@H](O)[C@@H](O)[C@@H](O[C@H]4[C@H](O)[C@@H](O)[C@@H](O[C@H]5[C@H](O)[C@@H](O)[C@@H](O[C@H]6[C@H](O)[C@@H](O)[C@@H](O[C@H]7[C@H](O)[C@@H](O)[C@@H](O[C@H]8[C@H](O)[C@@H](O)[C@@H](O[C@H]1[C@H](O)[C@H]2O)O[C@@H]8CO)O[C@@H]7CO)O[C@@H]6CO)O[C@@H]5CO)O[C@@H]4CO)O[C@@H]3CO", "note": "[MA-β-CD, mono-(6-N-amino-6-deoxy)-β-CD]", "4-MEC–CD complex stability constant, Kstab/Kstab1 (unresolved or first migrating enantiomer)": "180 ± 40", "Butylone–CD complex stability constant, Kstab2 (second migrating enantiomer)": "340 ± 50", "Butylone–CD complex stability constant, Kstab/Kstab1 (unresolved or first migrating enantiomer)": "140 ± 25", "Flephedrone–CD complex stability constant, Kstab/Kstab1 (unresolved or first migrating enantiomer)": "425 ± 80", "MDPV–CD complex stability constant, Kstab2 (second migrating enantiomer)": "200 ± 30", "MDPV–CD complex stability constant, Kstab/Kstab1 (unresolved or first migrating enantiomer)": "350 ± 60", "Mephedrone–CD complex stability constant, Kstab/Kstab1 (unresolved or first migrating enantiomer)": "225 ± 35"}, {"molecule": "C[N+]1(C[C@H]2O[C@@H]3O[C@H]4[C@H](O)[C@@H](O)[C@@H](O[C@H]5[C@H](O)[C@@H](O)[C@@H](O[C@H]6[C@H](O)[C@@H](O)[C@@H](O[C@H]7[C@H](O)[C@@H](O)[C@@H](O[C@H]8[C@H](O)[C@@H](O)[C@@H](O[C@H]9[C@H](O)[C@@H](O)[C@@H](O[C@H]2[C@H](O)[C@H]3O)O[C@@H]9CO)O[C@@H]8CO)O[C@@H]7CO)O[C@@H]6CO)O[C@@H]5CO)O[C@@H]4CO)CCCCC1", "note": "[MePIP-β-CD, mono-6^A-(N-methyl-piperidine)-β-CD]", "4-MEC–CD complex stability constant, Kstab/Kstab1 (unresolved or first migrating enantiomer)": "50 ± 5", "Butylone–CD complex stability constant, Kstab/Kstab1 (unresolved or first migrating enantiomer)": "40 ± 3", "Flephedrone–CD complex stability constant, Kstab/Kstab1 (unresolved or first migrating enantiomer)": "40 ± 3", "MDPV–CD complex stability constant, Kstab/Kstab1 (unresolved or first migrating enantiomer)": "85 ± 5", "Mephedrone–CD complex stability constant, Kstab/Kstab1 (unresolved or first migrating enantiomer)": "45 ± 5"}, {"molecule": "CO[C@@H]1[C@@H](OC)[C@H]2O[C@H]3[C@H](OC)[C@@H](OC)[C@@H](O[C@H]4[C@H](OC)[C@@H](OC)[C@@H](O[C@H]5[C@H](OC)[C@@H](OC)[C@@H](O[C@H]6[C@H](OC)[C@@H](OC)[C@@H](O[C@H]7[C@H](OC)[C@@H](OC)[C@@H](O[C@H]8[C@H](OC)[C@@H](OC)[C@@H](O[C@H]9[C@H](OC)[C@@H](OC)[C@@H](O[C@@H]1[C@@H](COS(=O)(=O)O)O2)O[C@@H]9COS(=O)(=O)O)O[C@@H]8COS(=O)(=O)O)O[C@@H]7COS(=O)(=O)O)O[C@@H]6COS(=O)(=O)O)O[C@@H]5COS(=O)(=O)O)O[C@@H]4COS(=O)(=O)O)O[C@@H]3COS(=O)(=O)O", "note": "[ODMS-γ-CD, octakis-(2,3-O-dimethyl, 6-O-sulfo)-γ-CD]", "4-MEC–CD complex stability constant, Kstab2 (second migrating enantiomer)": "125 ± 20", "4-MEC–CD complex stability constant, Kstab/Kstab1 (unresolved or first migrating enantiomer)": "110 ± 15", "Butylone–CD complex stability constant, Kstab2 (second migrating enantiomer)": "165 ± 25", "Butylone–CD complex stability constant, Kstab/Kstab1 (unresolved or first migrating enantiomer)": "145 ± 15", "Flephedrone–CD complex stability constant, Kstab2 (second migrating enantiomer)": "70 ± 10", "Flephedrone–CD complex stability constant, Kstab/Kstab1 (unresolved or first migrating enantiomer)": "90 ± 20", "MDPV–CD complex stability constant, Kstab2 (second migrating enantiomer)": "110 ± 45", "MDPV–CD complex stability constant, Kstab/Kstab1 (unresolved or first migrating enantiomer)": "105 ± 7", "Mephedrone–CD complex stability constant, Kstab2 (second migrating enantiomer)": "140 ± 20", "Mephedrone–CD complex stability constant, Kstab/Kstab1 (unresolved or first migrating enantiomer)": "200 ± 35"}, {"molecule": "OC[C@H]1O[C@@H]2O[C@H]3[C@H](O)[C@@H](O)[C@@H](O[C@H]4[C@H](O)[C@@H](O)[C@@H](O[C@H]5[C@H](O)[C@@H](O)[C@@H](O[C@H]6[C@H](O)[C@@H](O)[C@@H](O[C@H]7[C@H](O)[C@@H](O)[C@@H](O[C@H]8[C@H](O)[C@@H](O)[C@@H](O[C@H]1[C@H](O)[C@H]2O)O[C@@H]8CO)O[C@@H]7CO)O[C@@H]6CO)O[C@@H]5CN1CCCCC1)O[C@@H]4CO)O[C@@H]3CO", "note": "[PIP-β-CD, 6-monodeoxy-6-piperidine-β-CD]", "4-MEC–CD complex stability constant, Kstab/Kstab1 (unresolved or first migrating enantiomer)": "< 10", "Butylone–CD complex stability constant, Kstab/Kstab1 (unresolved or first migrating enantiomer)": "< 10", "Flephedrone–CD complex stability constant, Kstab/Kstab1 (unresolved or first migrating enantiomer)": "< 10", "MDPV–CD complex stability constant, Kstab/Kstab1 (unresolved or first migrating enantiomer)": "< 10", "Mephedrone–CD complex stability constant, Kstab/Kstab1 (unresolved or first migrating enantiomer)": "< 10"}, {"molecule": "OC[C@H]1O[C@@H]2O[C@H]3[C@H](O)[C@@H](O)[C@@H](O[C@H]4[C@H](O)[C@@H](O)[C@@H](O[C@H]5[C@H](O)[C@@H](O)[C@@H](O[C@H]6[C@H](O)[C@@H](O)[C@@H](O[C@H]7[C@H](O)[C@@H](O)[C@@H](O[C@H]8[C@H](O)[C@@H](O)[C@@H](O[C@H]1[C@H](O)[C@H]2O)O[C@@H]8CO)O[C@@H]7CO)O[C@@H]6CO)O[C@@H]5CN1CCCC1)O[C@@H]4CO)O[C@@H]3CO", "note": "[PYR-β-CD, 6-monodeoxy-6-pyrrolidine-β-CD]", "4-MEC–CD complex stability constant, Kstab/Kstab1 (unresolved or first migrating enantiomer)": "215 ± 30", "Flephedrone–CD complex stability constant, Kstab/Kstab1 (unresolved or first migrating enantiomer)": "640 ± 145", "MDPV–CD complex stability constant, Kstab2 (second migrating enantiomer)": "430 ± 50", "MDPV–CD complex stability constant, Kstab/Kstab1 (unresolved or first migrating enantiomer)": "105 ± 15", "Mephedrone–CD complex stability constant, Kstab/Kstab1 (unresolved or first migrating enantiomer)": "115 ± 20"}]}]}
